Results as given in patent US6355799B1, “Substituted benzene compounds, process for their preparation, and herbicidal and defoliant compositions containing them” (ISK Americas Incorporated, priority 1997, dated 2002).

Columns and labels:
Type in all cases: in vivo
[1] = system: field corn (Zea mays L., var. Dekalb 535, CORN); assay: Post-emerge test, crop safety; settings: post-emerge, crop damage rating 0-100 at 14 days after application
How it was run: (§1)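 Plants grown in 10 cm pots of sandy loam mix received acetone-dissolved compounds through a moving flat-fan nozzle. Doses ranged from 15 to 1000 g ai/ha. Pre-emerge pots were seeded one day earlier, post-emerge pots 8–21 days earlier. Fourteen days on, each pot was graded 0–100 for damage.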

[2] = system: upland rice (Oryza sp., var. Tebonnet, RICE); assay: Post-emerge test, crop safety; settings: post-emerge, crop damage rating 0-100 at 14 days after application
How it was run: as §1

[3] = system: barnyardgrass (Echinochloa crus-galli, ECHCG); assay: Pre-emerge test, greenhouse herbicide activity screening; settings: pre-emerge, phytotoxicity rating 0-100 at 14 days after application
How it was run: (§2)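 Rating: 0–100 visual injury, 14 DAA. Application: acetone, 187 l/ha, 15–1000 g ai/ha, flat-fan track sprayer with nozzle 40–45 cm above soil or canopy. Post-emerge runs used 0.25% v/v surfactant on 2–3 leaf plants.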

[4] = system: lambsquarters (Chenopodium album, CHEAL); assay: as above; settings: pre-emerge, phytotoxicity rating 0-100 at 14 days after application
How it was run: as §2

[5] = system: velvetleaf (Abutilon theophrasti, ABUTH); assay: as above; settings: pre-emerge, phytotoxicity rating 0-100 at 14 days after application
How it was run: as §2

[6] = system: ivyleaf morningglory (Ipomoea hederacea, IPOHE); assay: as above; settings: pre-emerge, phytotoxicity rating 0-100 at 14 days after application
How it was run: as §2

[7] = system: johnsongrass (Sorghum halepense, SORHA); assay: as above; settings: pre-emerge, phytotoxicity rating 0-100 at 14 days after application
How it was run: as §2

[8] = system: large crabgrass (Digitaria sanguinalis, DIGSA); assay: as above; settings: pre-emerge, phytotoxicity rating 0-100 at 14 days after application
How it was run: as §2

[9] = system: green foxtail (Setaria viridis, SETVI); assay: as above; settings: pre-emerge, phytotoxicity rating 0-100 at 14 days after application
How it was run: as §2

[10] = system: sicklepod (Cassia obtusifolia, CASOB); assay: as above; settings: pre-emerge, phytotoxicity rating 0-100 at 14 days after application
How it was run: as §2

[11] = system: redroot pigweed (Amaranthus retroflexus, AMARE); assay: as above; settings: pre-emerge, phytotoxicity rating 0-100 at 14 days after application
How it was run: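 Visual ratings on a 0-100 scale (0 no damage, 100 all plants dead) were taken at 14 days after treatment. Rates of 15-1000 g ai/ha in acetone, 187 l/ha, were sprayed onto soil one day after planting (pre-emerge) or onto 2-3 leaf plants with 0.25% v/v surfactant (post-emerge).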

[12] = system: field corn (Zea mays L., var. Dekalb 535, CORN); assay: Pre-emerge test, crop safety; settings: crop damage, pre-emerge, phytotoxicity rating 0-100 at 14 days after application
How it was run: (§3)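 Fourteen days after spraying, crop and weed injury was graded visually from 0, no effect, to 100, every plant dead. Test substances were dissolved in acetone and applied at 15–1000 g ai/ha with a flat-fan nozzle. Application was either pre-emergence, one day after sowing, or post-emergence at the 2–3 leaf stage.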

[13] = system: upland rice (Oryza sp., var. Tebonnet, RICE); assay: Pre-emerge test, crop safety; settings: crop damage, pre-emerge, phytotoxicity rating 0-100 at 14 days after application
How it was run: as §3

[14] = system: barnyardgrass (Echinochloa crus-galli, ECHCG); assay: Post-emerge test, greenhouse herbicide activity screening; settings: post-emerge, phytotoxicity rating 0-100 at 14 days after application
How it was run: (§4)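 Applied at 15–1000 g ai/ha from acetone in 187 l/ha spray volume. Post-emergence applications included 0.25% v/v non-ionic surfactant and reached plants sown 8–21 days before. Pre-emergence applications were incorporated by surface watering. Efficacy or crop damage was rated on a 0–100 scale after 14 days.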

[15] = system: lambsquarters (Chenopodium album, CHEAL); assay: as above; settings: post-emerge, phytotoxicity rating 0-100 at 14 days after application
How it was run: as §4

[16] = system: velvetleaf (Abutilon theophrasti, ABUTH); assay: as above; settings: post-emerge, phytotoxicity rating 0-100 at 14 days after application
How it was run: as §4

[17] = system: ivyleaf morningglory (Ipomoea hederacea, IPOHE); assay: as above; settings: post-emerge, phytotoxicity rating 0-100 at 14 days after application
How it was run: as §4

[18] = system: johnsongrass (Sorghum halepense, SORHA); assay: as above; settings: post-emerge, phytotoxicity rating 0-100 at 14 days after application
How it was run: as §4

[19] = system: large crabgrass (Digitaria sanguinalis, DIGSA); assay: as above; settings: post-emerge, phytotoxicity rating 0-100 at 14 days after application
How it was run: as §4

[20] = system: green foxtail (Setaria viridis, SETVI); assay: as above; settings: post-emerge, phytotoxicity rating 0-100 at 14 days after application
How it was run: as §4

[21] = system: redroot pigweed (Amaranthus retroflexus, AMARE); assay: as above; settings: post-emerge, phytotoxicity rating 0-100 at 14 days after application
How it was run: as §4

[22] = system: sicklepod (Cassia obtusifolia, CASOB); assay: as above; settings: post-emerge, phytotoxicity rating 0-100 at 14 days after application
How it was run: as §4

`CC(C)Oc1c(Cl)cc(F)c(N2C(=O)C3=C(CCCC3)C2=O)c1NC(=O)c1ccc(F)cc1F` [8-18] was tested, and the “Post-emerge Herbicidal Activity CORN” value ([1]; 63 g ai/ha) was 5, the “Post-emerge Herbicidal Activity CORN” value ([1]; 250 g ai/ha) was 30 and the “Post-emerge Herbicidal Activity RICE” value ([2]; 63 g ai/ha) was 50. For the same molecule, the “Post-emerge Herbicidal Activity RICE” value ([2]; 250 g ai/ha) was 60, the “Pre-emerge Herbicidal Activity ECHCG” value ([3]; rate 63 g ai/ha) was 10 and the “Pre-emerge Herbicidal Activity ECHCG” value ([3]; rate 250 g ai/ha) was 90. The “Pre-emerge Herbicidal Activity CHEAL” value ([4]; rate 63 g ai/ha) was 70, the “Pre-emerge Herbicidal Activity CHEAL” value ([4]; rate 250 g ai/ha) was 100 and the “Pre-emerge Herbicidal Activity ABUTH” value ([5]; rate 63 g ai/ha) was 90. For the same molecule, the “Pre-emerge Herbicidal Activity ABUTH” value ([5]; rate 250 g ai/ha) was 100, the “Pre-emerge Herbicidal Activity IPOHE” value ([6]; rate 63 g ai/ha) was 0 and the “Pre-emerge Herbicidal Activity IPOHE” value ([6]; rate 250 g ai/ha) was 30. For the same molecule, the “Pre-emerge Herbicidal Activity SORHA” value ([7]; rate 63 g ai/ha) was 0, the “Pre-emerge Herbicidal Activity SORHA” value ([7]; rate 250 g ai/ha) was 50 and the “Pre-emerge Herbicidal Activity DIGSA” value ([8]; rate 63 g ai/ha) was 10. The “Pre-emerge Herbicidal Activity DIGSA” value ([8]; rate 250 g ai/ha) was 80, the “Pre-emerge Herbicidal Activity SETVI” value ([9]; rate 63 g ai/ha) was 50 and the “Pre-emerge Herbicidal Activity SETVI” value ([9]; rate 250 g ai/ha) was 100. For the same molecule, the “Pre-emerge Herbicidal Activity CASOB” value ([10]; rate 63 g ai/ha) was 0, the “Pre-emerge Herbicidal Activity CASOB” value ([10]; rate 250 g ai/ha) was 60 and the “Pre-emerge Herbicidal Activity AMARE” value ([11]; rate 63 g ai/ha) was 60. For the same molecule, the “Pre-emerge Herbicidal Activity AMARE” value ([11]; rate 250 g ai/ha) was 100, the “Pre-emerge Herbicidal Activity CORN” value ([12]; rate 63 g ai/ha) was 0 and the “Pre-emerge Herbicidal Activity CORN” value ([12]; rate 250 g ai/ha) was 10. For the same molecule, the “Pre-emerge Herbicidal Activity RICE” value ([13]; rate 63 g ai/ha) was 10, the “Pre-emerge Herbicidal Activity RICE” value ([13]; rate 250 g ai/ha) was 30 and the “Post-emerge Herbicidal Activity ECHCG” value ([14]; 63 g ai/ha) was 10. For the same molecule, the “Post-emerge Herbicidal Activity ECHCG” value ([14]; 250 g ai/ha) was 30, the “Post-emerge Herbicidal Activity CHEAL” value ([15]; 63 g ai/ha) was 70 and the “Post-emerge Herbicidal Activity CHEAL” value ([15]; 250 g ai/ha) was 80. The “Post-emerge Herbicidal Activity ABUTH” value ([16]; 63 g ai/ha) was 100, the “Post-emerge Herbicidal Activity ABUTH” value ([16]; 250 g ai/ha) was 100 and the “Post-emerge Herbicidal Activity IPOHE” value ([17]; 63 g ai/ha) was 50. The “Post-emerge Herbicidal Activity IPOHE” value ([17]; 250 g ai/ha) was 60, the “Post-emerge Herbicidal Activity SORHA” value ([18]; 63 g ai/ha) was 10 and the “Post-emerge Herbicidal Activity SORHA” value ([18]; 250 g ai/ha) was 30. The “Post-emerge Herbicidal Activity DIGSA” value ([19]; 63 g ai/ha) was 10, the “Post-emerge Herbicidal Activity DIGSA” value ([19]; 250 g ai/ha) was 20 and the “Post-emerge Herbicidal Activity SETVI” value ([20]; 63 g ai/ha) was 30. The “Post-emerge Herbicidal Activity SETVI” value ([20]; 250 g ai/ha) was 30, the “Post-emerge Herbicidal Activity AMARE” value ([21]; 63 g ai/ha) was 100 and the “Post-emerge Herbicidal Activity AMARE” value ([21]; 250 g ai/ha) was 100. For the same molecule, the “Post-emerge Herbicidal Activity CASOB” value ([22]; 63 g ai/ha) was 30 and the “Post-emerge Herbicidal Activity CASOB” value ([22]; 250 g ai/ha) was 40.
